# Measured values: patent US5637619A, “Antitumor 2-aminocarbonyl-1, 2-bis(methylsulfonyl)-1-(substituted)hydrazines” (Yale University, priority 1995, dated 1997)
# Read-outs that look alike come from different tables or passages of the source.
# Key:
# [1] = test system: M5076 reticulum cell sarcoma; conditions: compared with compound III or BCNU; cited from earlier work
# [2] = test system: M109 lung carcinoma; conditions: as reported earlier (J. Med. Chem. 1993, 36, 3496); cited from earlier work
# [3] = test system: M109 lung carcinoma; conditions: 60 mg/kg per injection, highest dosage level, ip q4d × 3; different experiment; cited from earlier work
# [4] = test system: M5076 reticulum cell sarcoma; assay: M5076 reticulum cell sarcoma, sc implanted; type: in vivo, C57BL/6 mice; conditions: iv every fourth day × 3 (same treatment schedule as MeCCNU)
# Experimental: (§1) The M5076 reticulum cell sarcoma was passaged biweekly by sc transfer of tumor fragments into C57BL/6 mice, and the M109 lung carcinoma was similarly passaged in BALB/c mice. The LX-1 human lung carcinoma was passaged sc every two to three weeks in BALB/c-background athymic (nu/nu) mice. For use in these systems, compound III was dissolved in: (a) 100% DMSO and administered by iv injection in a fixed volume of 10 microliters; or (b) DMSO diluted with saline to a final concentration of 10% DMSO and administered iv in a volume of 0.01 milliliter/g of body weight. […] Mitomycin C and cyclophosphamide were dissolved and administered in saline. BCNU and MeCCNU were dissolved in ethanol and diluted 1:9 (v/v) with water prior to administration.
# (§2) Five mice per group were employed in experiments with the B16F10 melanoma, and 8 mice per group with the M5076 sarcoma, the M109 carcinoma and the LX-1 carcinoma. A minimum of two dose levels per compound were included in each evaluation and drug therapy was initiated 24 h after tumor implantation for the M5076 sarcoma and M109 carcinoma. In the LX-1 experiment, tumor bearing mice were selected and sorted into treatment and control groups on day 6 post-tumor implant such that all tumor weights ranged from 50-100 mg and median tumor weights per group were reasonably similar. Therapeutic results are presented in terms of: (a) increases in lifespan reflected by the relative median survival time (MST) of treated versus control groups (i.e., %T/C values), and by long-term survivors, and (b) primary tumor growth inhibition (i.e., T-C values) determined by calculating the relative median times for treated (T) and control untreated (C) mice to grow tumors of a 0.5 g size for the LX-1 carcinoma or a 1 g size for the murine neoplasms. Tumor weights were interchangeable with tumor size on the basis of 1 mm^3 =1 mg. […] The activity criterion for tumor inhibition was a delay in tumor growth consistent with one log10 cell kill (LCK). The absolute T-C value needed to attain this level of efficacy varied from experiment to experiment and depended upon the tumor volume doubling time of the control mice in each study. Treated mice dying prior to day 10 in the ip M109 experiment, or dying before their tumors achieved 0.5 g for the LX-1 carcinoma or 1 g in size for all other sc tumor models, were considered to have died from drug toxicity. Groups of mice with more than one death due to drug toxicity were not used in the evaluation of antitumor efficacy. Statistical evaluations of data were performed using Gehan's generalized Wilcoxan test (Gehan, Biometrika, 1965, 52, 203-233).
# Compound III was also evaluated against the M5076 reticulum cell sarcoma implanted sc. When administered iv at a level of 48 mg/kg per injection in 100% DMSO every other day for five days, compound III cured 6 out of 8 mice and consequently, no median time (T-C value) to reach 1 gram size tumors was expressed for this group. Tumor growth in mice receiving only 100% DMSO was indistinguishable from that of untreated control animals. 1-(2-Chloroethyl)-3-(4-methylcyclohexyl)-1-nitrosourea (MeCCNU) and BCNU were included in this experiment for comparison. The former achieved a maximum %T/C of 128 and a delay in tumor growth of 33.5 days at 16 mg/kg per injection administered iv every fourth day for three total injections, while BCNU, administered iv on the same treatment schedule, produced a %T/C in excess of 157, with 2 out of 8 cures, and a T-C of >62 days (data not shown).
# [5] = test system: thioredoxin reductase; conditions: cited from earlier work
# [6] = test system: ribonucleotide reductase; conditions: cited from earlier work
# [7] = test system: glutathione reductase; conditions: cited from earlier work
# [8] = test system: glutathione S-transferase mu isoenzymes; conditions: rat isoenzymes; cited from earlier work
# [9] = test system: liver microsomal enzymes; conditions: NADPH-dependent; cited from earlier work
# [10] = test system: glutathione S-transferase mu isoenzymes; conditions: human isoenzymes; cited from earlier work
# [11] = test system: LX-1 human lung carcinoma; assay: LX-1 human lung carcinoma xenograft, sc in athymic mice; type: in vivo, human tumor in athymic (nu/nu) mice; conditions: 20 mg/kg per injection (optimum), iv every fourth day × 3
# Experimental: as §1, §2
# The human lung tumor, LX-1, xenografted sc in athymic mice, was also used to examine the antineoplastic potential of compound III. […]
# [12] = test system: colon CX-1 human tumor xenografts; conditions: subrenal capsule, athymic mice; cited from earlier work
# [13] = test system: mammary MX-1 human tumor xenografts; conditions: subrenal capsule, athymic mice; cited from earlier work
# [14] = test system: B16F10 melanoma; assay: B16F10 melanoma, tumor growth delay in mice; type: in vivo, C57BL/6 mice; conditions: 100% DMSO
# Experimental: B16F10 melanoma cells were grown in vitro as monolayers in minimum essential medium with Hank's salts supplemented with 10% fetal bovine serum and 1% 200 mM L-glutamine solution. Solid tumors were produced in C57BL/6 female mice 12- to 14-weeks of age by the intradermal injection in the right flank of each mouse of 0.1 mL of a cell suspension containing 10^6 B16F10 cells/mL from freshly trypsinized cultures. After 10-12 days, animals bearing approximately 100 mm^3 tumors were treated ip with compound III or IV dissolved in 100% DMSO for 6 consecutive days, and tumor volumes were measured on alternate days until reaching 1000 mm^3.
# as §2
# In addition, both compounds III and IV were evaluated in 100% DMSO against the B16F10 melanoma implanted intradermally (id) in mice (Table III). In an initial experiment, compound IV produced a T-C of 15.5 days at a daily dosage level of 20 mg/kg administered once daily for six consecutive days beginning on day 10 post-implant. In the same experiment, using the same treatment schedule, a growth delay of 11 days was obtained with compound III. […] Thus, the aminocarbonyl component in this class of agents influences the magnitude of the antitumor effects obtained against the B16F10 melanoma.
# [15] = test system: L1210 leukemia; assay: L1210 leukemia survival time in mice (ip implanted); type: in vivo, mice (CD2F1)
# Experimental: (§3) Leukemia L1210 cells were obtained from the Frederick Cancer Research Facility, Division of Cancer Treatment Tumor Repository of the National Cancer Institute, and were maintained by serial passage in tissue culture. Every 8 weeks, tumor cells were injected intraperitoneally into five donor CD2 F1 mice 8- to 10- weeks of age and were allowed to grow for 7 days. The peritoneal fluid was withdrawn and the suspension was centrifuged for 5 min at 1600 g. The supernatant was decanted and 10^5 cells/mL were seeded into 10 mL of RPMI 1640 medium supplemented with 10% fetal bovine serum and 1% L-glutamine, and once again maintained in culture. To assay for antineoplastic activity, 0.1 mL of the cell suspension containing 10^5 L1210 leukemia cells was injected ip into each recipient mouse. Test compounds were administered over a wide range of dosage levels, beginning 24 h after tumor implantation, and continued once daily for 6 consecutive days. All drugs were administered ip as a solution in 100% dimethylsulfoxide (DMSO), in a volume not exceeding 0.025 mL. […] Mice were weighed during the course of the experiments, and the percentage change in body weight from onset to termination of therapy was used as an indication of drug toxicity. Determination of the sensitivity of neoplasms to these agents was based upon the prolongation of survival time afforded by the drug treatments.
# (§4) ^a Administered ip once daily for six consecutive days, beginning 24 hours after tumor implantation, with 5-10 mice being used per group. ^b Average percent change in body weight from onset to termination of therapy. ^c % T/C=average survival time of treated/control mice×100; cures (>60-day survivors) are listed separately and are not included in this calculation.
# [16] = Body weight change / toxicity in L1210-bearing mice; type: in vivo, mice (CD2F1); conditions: for Av. Wt. Change %: L1210-bearing mice
# Experimental: as §3, §4
# [17] = chloroethylating agent with no carbamoylating activity; cited from earlier work
# [18] = test system: NADPH:cytochrome P450 reductase; conditions: cited from earlier work
structure (smiles),measurement,setting,value
CC(=O)N(N(CCCl)S(C)(=O)=O)S(C)(=O)=O [X],activity against M5076 (in words),[1],much less active than compound III or BCNU
same,maximum %T/C,[2],136%
same,maximum T-C value,[2],14.5 days
same,%T/C (median survival time),[3],231%
"O=NN(CCCl)C(=O)NCCCl [BCNU, 1,3-bis(2-chloroethyl)-1-nitrosourea]",%T/C,[4],> 157%
same,T-C,[4],> 62 days
same,cures,[4],2 out of 8
same,inhibition of thioredoxin reductase (in words),[5],"inhibit glutathione reductase, ribonucleotide reductase and thioredoxin reductase"
same,inhibition of ribonucleotide reductase (in words),[6],"inhibit glutathione reductase, ribonucleotide reductase"
same,inhibition of glutathione reductase (in words),[7],inhibit glutathione reductase
same,glutathione-dependent denitrosation (in words),[8],undergo glutathione-dependent denitrosation
same,inactivation by denitrosation (in words),[9],inactivated by denitrosation by liver microsomal enzymes
same,glutathione-dependent denitrosation (in words),[10],undergo glutathione-dependent denitrosation
same,T-C,[11],11.8 days
same,log10 cell kill (LCK),[11],1.3 LCK
CNC(=O)ON(C(C)=O)C(=O)NC [Caracemide],antitumor activity (in words),[12],active
same,antitumor activity (in words),[13],active
"CNC(=O)N(N(CCCl)S(C)(=O)=O)S(C)(=O)=O [Compound IV, 1,2-Bis(methylsulfonyl)-1-(2-chloroethyl)-2-methylaminocarbonylhydrazine]",T-C,"[14]; experiment a, 10 mg/kg/injection, qd × 6 from day 10, ip",5.0 days
same,"T-C, growth delay","[14]; experiment a, 20 mg/kg/injection, qd × 6 from day 10, ip",15.5 days
same,T-C,"[14]; experiment b, 20 mg/kg/injection, qd × 6 from day 12, ip",10.0 days
same,"T-C, growth delay","[14]; experiment b, 30 mg/kg/injection, qd × 6 from day 12, ip",25.5 days
same,% 60 Day Survivors (cures),[15]; 5 mg/kg ip once daily × 6,40%
same,%T/C (average survival time treated/control × 100),"[15]; 5 mg/kg ip once daily × 6, cures not included",234%
same,% 60 Day Survivors (cures),[15]; 10 mg/kg ip once daily × 6,100%
same,% 60 Day Survivors (cures),[15]; 15 mg/kg ip once daily × 6,100%
same,antileukemic activity / therapeutic potential (in words),"[15]; qualitative, L1210 leukemia in mice",much better therapeutic potential than the amino acid ester derivatives
same,Av. Wt. Change %,[16]; 5 mg/kg ip once daily × 6,+9.9%
same,body weight loss (in words),[16]; 5 mg/kg × 6,no body weight loss
same,Av. Wt. Change %,[16]; 10 mg/kg ip once daily × 6,-5.6%
same,Av. Wt. Change %,[16]; 15 mg/kg ip once daily × 6,-2.1%
same,loss of body weight,[16]; 10 and 15 mg/kg × 6,< 6%
CS(=O)(=O)CS(=O)(=O)OCCCl [clomesone],antineoplastic activity (in words),[17],excellent antineoplastic activity
"O=NN(CCCl)C(=O)NC1CCCCC1 [CCNU, 1-(2-chloroethyl)-3-cyclohexyl-1-nitrosourea]",denitrosation (in words),[18],catalyzed by NADPH:cytochrome P450 reductase
